Values quoted from earlier work, collected in patent US7098239B2, “Dipeptidyl peptidase inhibitors for the treatment of diabetes” (Merck & Co., Inc, priority 2001, dated 2006).
Each block holds one compound with its values, some of them ahead of it.

Legend:
hematopoiesis = settings: mouse model of cyclophosphamide-induced neutropenia
cardiac allograft = settings: rats; survival doubled from day 7 to day 14
DP-IV = target: T1, DP-IV (Homo sapiens, UniProt P27487)
T1 construct: GRF is rapidly degraded in plasma to GRF[3–44]
T1 sequence (P27487 39-766 limits assumed): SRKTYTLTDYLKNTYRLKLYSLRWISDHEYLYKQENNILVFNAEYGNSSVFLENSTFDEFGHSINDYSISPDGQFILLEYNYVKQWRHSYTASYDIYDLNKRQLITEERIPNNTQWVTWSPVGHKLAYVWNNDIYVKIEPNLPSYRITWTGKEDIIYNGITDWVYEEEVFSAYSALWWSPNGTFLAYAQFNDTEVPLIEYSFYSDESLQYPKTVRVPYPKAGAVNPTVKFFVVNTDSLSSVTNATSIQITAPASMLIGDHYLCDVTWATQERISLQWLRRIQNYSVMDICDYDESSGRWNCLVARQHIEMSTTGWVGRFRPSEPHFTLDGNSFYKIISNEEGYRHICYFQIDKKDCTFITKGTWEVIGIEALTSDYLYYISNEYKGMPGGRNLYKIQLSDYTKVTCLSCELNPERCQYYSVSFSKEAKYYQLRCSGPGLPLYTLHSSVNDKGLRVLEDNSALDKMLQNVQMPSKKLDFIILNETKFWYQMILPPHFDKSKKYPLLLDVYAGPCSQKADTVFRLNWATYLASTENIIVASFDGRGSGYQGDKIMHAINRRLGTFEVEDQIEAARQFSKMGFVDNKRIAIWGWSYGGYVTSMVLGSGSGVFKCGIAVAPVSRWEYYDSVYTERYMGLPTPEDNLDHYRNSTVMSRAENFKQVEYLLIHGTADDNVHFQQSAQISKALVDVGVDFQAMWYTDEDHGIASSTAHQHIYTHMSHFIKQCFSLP

Compound: CC(C)[C@H](N)C(=O)N1CCC[C@H]1B(O)O [Val-Boro-Pro]
hematopoiesis (hematopoiesis): stimulates hematopoiesis

Compound: CC(C)N1CCC(c2ccccc2)(c2ccccc2)CC1 [Prodipine, Pro-Pro-diphenyl-phosphonate]
cardiac allograft survival (cardiac allograft): 14 day

degradation of GRF in plasma to GRF[3-44] (DP-IV): prevented
Compound: diprotin A
